Experimental findings from PubChem BioAssay (NCI) are described below.

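Step 1: Grow cells in 96-well plates. Step 2: Expose to compound for 48 hours at 5 concentrations. Step 3: Interpolate endpoints linearly; if unreached, use highest concentration. Abbreviation: GI50, concentration required for 50% inhibition of growth. At the TGI there is no net growth.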 Bounds are passed on as bounds.

Test systems include A549 NSCLC; ACHN renal; BT-549 breast; DU-145 prostate; KM12 colon; MCF7 breast; NCI-H226 lung; PC-3 prostate; T-47D breast; TK-10 renal.
Assay in all cases: DTP human tumour cell line panel, 48 h

Turning to `COc1ccc2sc3c(NCCCN(C)C)nc4ccccc4c3c(=O)c2c1`, the GI50 (commonly the concentration at which growth is held to half of that of the control) with A549 NSCLC is 1.75 µM; in the test on ACHN renal, 1.56 µM; in the test with BT-549 breast, 5.24 µM; in the test on DU-145 prostate, 1.66 µM; with KM12 colon, 1.68 µM; in the test on MCF7 breast it was 1.74 µM. In addition, the GI50 in the test on NCI-H226 lung was 1.67 µM; with PC-3 prostate, 1.62 µM; in the test with T-47D breast, 1.86 µM; in the test with TK-10 renal, 1.81 µM. Also, the TGI (commonly the concentration at which net growth stops) with A549 NSCLC was determined as 3.74 µM; with ACHN renal, 2.9 µM; in the test on BT-549 breast, 18.1 µM; with DU-145 prostate it was 3.07 µM; in the test on KM12 colon, 3.18 µM; in the test on MCF7 breast, 3.4 µM. In addition, the TGI in the test on NCI-H226 lung is 3.34 µM; with PC-3 prostate it was 3.22 µM; with T-47D breast it was 4.24 µM; in the test on TK-10 renal it was 3.31 µM.

On to `CC(CCC(=O)O)[C@H]1CCC2[C@@H]3CC[C@@H]4CC(O)CC[C@]4(C)C3CC[C@@]21C` (stereo not given in full), for which the GI50 in the test on A549 NSCLC is 25.3 µM; in the test on ACHN renal, 29.3 µM; in the test on BT-549 breast, 53.9 µM; in the test on DU-145 prostate it was 44.4 µM; in the test with KM12 colon it was 40.5 µM; in the test on MCF7 breast, 30.2 µM. Moreover, the GI50 with NCI-H226 lung was 63.5 µM; in the test with PC-3 prostate, 26.2 µM; in the test on T-47D breast it was 33.7 µM; in the test on TK-10 renal, 42.2 µM. Moreover, the concentration for total growth inhibition (TGI) in the test with A549 NSCLC, in the test with ACHN renal, in the test on BT-549 breast, in the test on DU-145 prostate, in the test with KM12 colon and in the test on MCF7 breast was greater than 100 µM throughout. For the same compound, the TGI in the test with NCI-H226 lung was greater than 100 µM; in the test on PC-3 prostate, 72.3 µM; with T-47D breast, greater than 100 µM; in the test with TK-10 renal, greater than 100 µM.

Take `COc1cc2c(c(OC)c1)C1c3ccccc3NC(=O)N1CC2` (stereo not given): the GI50 with A549 NSCLC was 4.59 µM; in the test on ACHN renal, 5.48 µM; in the test with BT-549 breast, 6.24 µM; in the test with DU-145 prostate it was 4.84 µM; with KM12 colon, 4.95 µM; with MCF7 breast it was 3.13 µM. In addition, the GI50 in the test with NCI-H226 lung was 7.24 µM; with PC-3 prostate it was 3.89 µM; in the test on T-47D breast, 5.59 µM; in the test on TK-10 renal it was 8.98 µM. For the same compound, the TGI in the test with A549 NSCLC was greater than 100 µM; in the test on ACHN renal it was greater than 100 µM; in the test with BT-549 breast it was 80.7 µM; in the test on DU-145 prostate, greater than 100 µM; in the test with KM12 colon, greater than 100 µM; in the test with MCF7 breast, greater than 100 µM. The total growth inhibition concentration (TGI) with NCI-H226 lung, in the test on PC-3 prostate, in the test with T-47D breast and in the test on TK-10 renal was greater than 100 µM in each case.

Turning to `Cc1cc(N(CCCl)CCCl)ccc1C=Nc1ccc(-c2csc(Cc3ccccc3)n2)cc1`, the GI50 in the test with A549 NSCLC was 5.41 µM; with ACHN renal it was 5.35 µM; with BT-549 breast, 13.4 µM; in the test with DU-145 prostate, 7.98 µM; in the test with KM12 colon it was 15.8 µM; with MCF7 breast, 4.66 µM. Further, the GI50 was 0.596 µM in the test with NCI-H226 lung, 5.66 µM with PC-3 prostate, 2.82 µM in the test with T-47D breast and 19.9 µM with TK-10 renal. The total growth inhibition concentration (TGI) with A549 NSCLC was greater than 62.4 µM; in the test on ACHN renal, greater than 91.3 µM; in the test on BT-549 breast, 42.4 µM; in the test on DU-145 prostate, 62.3 µM; in the test with KM12 colon, 55.6 µM; in the test with MCF7 breast it was 43.3 µM. Further, the TGI in the test with NCI-H226 lung was determined as 21.3 µM; with PC-3 prostate, 44.2 µM; in the test with T-47D breast, 49.2 µM; in the test on TK-10 renal, 62.5 µM.

For the compound `OC(c1cc(-c2ccccc2)nc2ccc(Cl)cc12)C1CCCCN1` (stereo not given), the GI50 was 3.07 µM in the test on A549 NSCLC; 1.64 µM in the test on ACHN renal; 5.82 µM with BT-549 breast; 3.07 µM with DU-145 prostate; 1.94 µM in the test on KM12 colon; 1.67 µM in the test with MCF7 breast. Moreover, the GI50 with NCI-H226 lung is 2.19 µM; with PC-3 prostate, 2.21 µM; with T-47D breast it was 2.51 µM; with TK-10 renal, 4.06 µM. Moreover, the TGI in the test on A549 NSCLC amounted to 8.21 µM; with ACHN renal, 3.21 µM; with BT-549 breast, 18.7 µM; in the test on DU-145 prostate, 8.74 µM; in the test on KM12 colon, 3.74 µM; in the test on MCF7 breast, 3.14 µM. Further, the TGI was 4.64 µM with NCI-H226 lung, 4.79 µM with PC-3 prostate, 5.47 µM in the test on T-47D breast and 16.2 µM with TK-10 renal.

Consider `COc1ccc(-c2nn3c(-c4cc(F)c(Cl)cc4Cl)nnc3s2)cc1`, for which the GI50 with A549 NSCLC was 39.1 µM; in the test on ACHN renal, 37.8 µM; with BT-549 breast, 24.4 µM; with DU-145 prostate, 29.1 µM; with KM12 colon it was 26.3 µM; in the test on MCF7 breast, 11.4 µM. Besides, the GI50 in the test with NCI-H226 lung was 47.9 µM; with PC-3 prostate, 34.1 µM; in the test on T-47D breast it was 27.5 µM; with TK-10 renal, 56.5 µM. In addition, the TGI in the test with A549 NSCLC is greater than 100 µM; in the test with ACHN renal, greater than 100 µM; with BT-549 breast, 69.7 µM; with DU-145 prostate, 83 µM; in the test with KM12 colon, greater than 100 µM; in the test with MCF7 breast, greater than 100 µM. The TGI in the test on NCI-H226 lung, in the test with PC-3 prostate, in the test on T-47D breast and with TK-10 renal was greater than 100 µM in each case.

Take `CCOC(=O)c1c2c(n3ccccc13)C(=O)c1ccccc1C2=O`: the TGI in the test on A549 NSCLC is 43.2 µM; in the test with ACHN renal, greater than 100 µM; in the test with BT-549 breast it was greater than 100 µM; with DU-145 prostate, greater than 100 µM; in the test on KM12 colon, greater than 100 µM; in the test with MCF7 breast, greater than 100 µM. Besides, the concentration for total growth inhibition (TGI) in the test on NCI-H226 lung, in the test on PC-3 prostate, in the test with T-47D breast and in the test with TK-10 renal was greater than 100 µM throughout.

Take `O=C(/C=C/c1ccccc1)c1cc(Br)ccc1O`: the TGI with A549 NSCLC is 52.2 µM; in the test on ACHN renal it was 28.7 µM; in the test on BT-549 breast, 33 µM; in the test on DU-145 prostate, 28.4 µM; in the test with KM12 colon, 25.7 µM; in the test with MCF7 breast it was 31.5 µM. In addition, the TGI was 31.7 µM in the test on NCI-H226 lung, 33.7 µM in the test on PC-3 prostate, 25.5 µM with T-47D breast and 31.6 µM with TK-10 renal.
